From patent publication US20260144769A1, “4-PHENYLBUTYRATE RESTORED GABA UPTAKE AND REDUCED SEIZURES IN SLC6A1 VARIANT-MEDIATED DISORDERS” (Vanderbilt University, priority 2022, published 2026)

Key:
GAT-1 [1] = target: T1, GAT-1 (Rattus norvegicus, UniProt P23978); assay: 3H GABA uptake, HEK cells transfected with GAT-1 cDNA with or without PBA (dual therapy); type: cell-based
T1 construct: EYFP (N); expressed in transfected cells; host or cells: HEK (HEK293T) cells
Description: In cell models, HEK293T cells were transfected with SLC6A1, SLC6A1(A288V) or SLC6A1(S295L) cDNAs. The live cells were then fluxed and evaluated for GABA uptake with a 3H radiolabeling GABA uptake assay. In order to evaluate gene expression and protein trafficking, total protein from cell lysates were subjected to SDS-PAGE and immunoblotted for GAT-1 and GFP. Gene expression was evaluated at a variety of gene therapy dosages.

GAT-1 [2] = assay: 3H GABA uptake, cultured cortical neurons from the knockin mice; type: cell-based, mouse; conditions: PBA 2 mM, 24 hr
Description: FIGS. 7C-D show neurons directly cultured in the 35-mm^2 dishes and GABA uptake was evaluated between day 15-17 days after culture. CI-966 (50 μM) and NNC711 (35 μM) was applied 30 min before preincubation and removed during preincubation. GAT-3 inhibitor SNAP5114 (30 μM) was applied during GABA uptake to make sure only GAT-1 activity was measured. The wildtype astrocytes (FIGS. 7A-B) or cortical neurons (FIGS. 7C-D) of either SLC6A1^+/A288V or SLC6A1^+/S295L were taken as 1. The cultures derived from each mutant mouse was compared to the culture from its own wildtype littermates. […] The wildtype data were pooled from two mouse lines. […] The graph represents the relative GABA uptake level normalized to cells of its own genotype treated with DMSO. CI-966 (50 μM) or NNC-711 (35 μM) was applied 30 min before preincubation and removed during preincubation. Two-way analysis of variance followed by Bonferroni multiple comparison test was used. Values were expressed as mean±S.E.M. In FIG. 7A and FIG. 7C, ***p<0.001 vs. wt; § § § P<0.001 S295L vs. A288V. […]
Briefly, cells were cultured in […] dishes for 3 days before the GABA uptake experiment in DMEM with 10% fetal bovine serum and 1% penicillin/streptomycin. […] Glacial acetic acid was added, and lysates were then determined on a liquid scintillator with QuantaSmart. […]

GABA uptake, combined cDNA/PBA treatment vs. cDNA alone (GAT-1 [1]; 0.25 μg GAT-1 cDNA + 2 mM PBA vs. 0.5 μg GAT-1 cDNA alone): No significant difference
SMILES: O=C(O)CCCc1ccccc1 [PBA, 4-phenylbutyric acid]
GABA uptake function, dual therapy vs. cDNA treatment alone (GAT-1 [1]; equal cDNA amount with PBA, variety of cDNA doses in HEK cells): greater GABA uptake function at all but one dose size
GABA uptake in PBA treated cells (GAT-1 [2]): upregulation
